Measured values: the supplement of paper PMC10307832

What was measured:
Assay in all cases: relative viability (nuclei count vs DMSO), 5 days (fraction); higher = more cells survive
ChaGo-K-1 = tested on: ChaGo-K-1
In short: (§1)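 Lung cancer cell lines were pin-tool dosed in 1536-well plates on the day after seeding, with either a lone drug or a fixed anchor-drug dose plus five library-drug doses (not always all listed) in √10 steps. Nuclei were counted on 4× images after 5 days. Relative viability is the ratio of treated-well to vehicle-well nuclei counts, with each value a median of duplicate plates.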

EPLC-272H = tested on: EPLC-272H
In short: as §1

HCC-827 = tested on: HCC-827
In short: as §1

HOP-62 = tested on: HOP-62
In short: as §1

LCLC-103H = tested on: LCLC-103H
In short: as §1

LOU-NH91 = tested on: LOU-NH91
In short: as §1

LXF-289 = tested on: LXF-289
In short: as §1

NCI-H1651 = tested on: NCI-H1651
In short: as §1

NCI-H1755 = tested on: NCI-H1755
In short: as §1

NCI-H2126 = tested on: NCI-H2126
In short: as §1

NCI-H2170 = tested on: NCI-H2170
In short: as §1

NCI-H2228 = tested on: NCI-H2228
In short: as §1

NCI-H2347 = tested on: NCI-H2347
In short: as §1

NCI-H23 = tested on: NCI-H23
In short: as §1

NCI-H322M = tested on: NCI-H322M
In short: as §1

NCI-H358 = tested on: NCI-H358
In short: as §1

NCI-H441 = tested on: NCI-H441
In short: as §1

NCI-H596 = tested on: NCI-H596
In short: as §1

NCI-H647 = tested on: NCI-H647
In short: as §1

NCI-H650 = tested on: NCI-H650
In short: as §1

PC-3 [JPC-3] = tested on: PC-3 [JPC-3]
In short: as §1

RERF-LC-KJ = tested on: RERF-LC-KJ
In short: as §1

SMILES: Nc1cccc2c1CN(C1CCC(=O)NC1=O)C2=O (stereo not given) [Lenalidomide] + C[C@@H](Oc1cc(-c2cnn(C3CCNCC3)c2)cnc1N)c1c(Cl)ccc(F)c1Cl [Crizotinib] (partner 1 µM)
- relative viability (ChaGo-K-1; first compound 0.253 µM): 1.1
- relative viability (ChaGo-K-1; first compound 2.53 µM): 1.31
- relative viability (ChaGo-K-1; first compound 8 µM): 1.28
- relative viability (EPLC-272H; first compound 0.253 µM): 0.838
- relative viability (EPLC-272H; first compound 2.53 µM): 0.802
- relative viability (EPLC-272H; first compound 8 µM): 0.8
- relative viability (HCC-827; first compound 0.253 µM): 1.02
- relative viability (HCC-827; first compound 0.8 µM): 1.02
- relative viability (HCC-827; first compound 2.53 µM): 0.964
- relative viability (HCC-827; first compound 8 µM): 1.06
- relative viability (HOP-62; first compound 0.253 µM): 0.859
- relative viability (HOP-62; first compound 0.8 µM): 0.507
- relative viability (HOP-62; first compound 2.53 µM): 0.938
- relative viability (HOP-62; first compound 8 µM): 0.74
- relative viability (LCLC-103H; first compound 0.253 µM): 1.03
- relative viability (LCLC-103H; first compound 0.8 µM): 0.965
- relative viability (LCLC-103H; first compound 2.53 µM): 1.05
- relative viability (LCLC-103H; first compound 8 µM): 0.904
- relative viability (LOU-NH91; first compound 0.253 µM): 0.73
- relative viability (LOU-NH91; first compound 0.8 µM): 0.732
- relative viability (LOU-NH91; first compound 2.53 µM): 0.714
- relative viability (LOU-NH91; first compound 8 µM): 0.704
- relative viability (LXF-289; first compound 0.253 µM): 0.831
- relative viability (LXF-289; first compound 0.8 µM): 0.836
- relative viability (LXF-289; first compound 2.53 µM): 0.919
- relative viability (LXF-289; first compound 8 µM): 0.983
- relative viability (NCI-H1651; first compound 0.253 µM): 0.875
- relative viability (NCI-H1651; first compound 0.8 µM): 0.884
- relative viability (NCI-H1651; first compound 2.53 µM): 0.865
- relative viability (NCI-H1651; first compound 8 µM): 0.861
- relative viability (NCI-H1755; first compound 0.253 µM): 0.828
- relative viability (NCI-H1755; first compound 0.8 µM): 0.85
- relative viability (NCI-H1755; first compound 2.53 µM): 0.9
- relative viability (NCI-H1755; first compound 8 µM): 0.821
- relative viability (NCI-H2126; first compound 0.253 µM): 1.02
- relative viability (NCI-H2126; first compound 0.8 µM): 1.02
- relative viability (NCI-H2126; first compound 2.53 µM): 1.08
- relative viability (NCI-H2126; first compound 8 µM): 0.993
- relative viability (NCI-H2170; first compound 0.253 µM): 1.21
- relative viability (NCI-H2170; first compound 0.8 µM): 1.14
- relative viability (NCI-H2170; first compound 2.53 µM): 1.17
- relative viability (NCI-H2170; first compound 8 µM): 1.14
- relative viability (NCI-H2228; first compound 0.253 µM): 0.421
- relative viability (NCI-H2228; first compound 0.8 µM): 0.362
- relative viability (NCI-H2228; first compound 2.53 µM): 0.586
- relative viability (NCI-H2228; first compound 8 µM): 0.457
- relative viability (NCI-H2347; first compound 0.253 µM): 0.779
- relative viability (NCI-H2347; first compound 0.8 µM): 0.674
- relative viability (NCI-H2347; first compound 2.53 µM): 0.83
- relative viability (NCI-H2347; first compound 8 µM): 0.573
- relative viability (NCI-H23; first compound 0.253 µM): 0.521
- relative viability (NCI-H23; first compound 0.8 µM): 0.439
- relative viability (NCI-H23; first compound 2.53 µM): 0.605
- relative viability (NCI-H23; first compound 8 µM): 0.62
- relative viability (NCI-H322M; first compound 0.253 µM): 0.911
- relative viability (NCI-H322M; first compound 0.8 µM): 0.9
- relative viability (NCI-H322M; first compound 2.53 µM): 0.914
- relative viability (NCI-H322M; first compound 8 µM): 0.996
- relative viability (NCI-H358; first compound 0.253 µM): 0.667
- relative viability (NCI-H358; first compound 0.8 µM): 0.592
- relative viability (NCI-H358; first compound 2.53 µM): 0.541
- relative viability (NCI-H358; first compound 8 µM): 0.712
- relative viability (NCI-H441; first compound 0.253 µM): 0.612
- relative viability (NCI-H441; first compound 0.8 µM): 0.693
- relative viability (NCI-H441; first compound 2.53 µM): 0.726
- relative viability (NCI-H441; first compound 8 µM): 0.778
- relative viability (NCI-H596; first compound 0.253 µM): 1.1
- relative viability (NCI-H596; first compound 0.8 µM): 0.912
- relative viability (NCI-H596; first compound 2.53 µM): 1.08
- relative viability (NCI-H596; first compound 8 µM): 0.938
- relative viability (NCI-H647; first compound 0.253 µM): 1.08
- relative viability (NCI-H647; first compound 0.8 µM): 1.04
- relative viability (NCI-H647; first compound 2.53 µM): 1.22
- relative viability (NCI-H647; first compound 8 µM): 1.14
- relative viability (NCI-H650; first compound 0.253 µM): 0.755
- relative viability (NCI-H650; first compound 2.53 µM): 0.863
- relative viability (NCI-H650; first compound 8 µM): 0.809
- relative viability (PC-3 [JPC-3]; first compound 0.253 µM): 0.933
- relative viability (PC-3 [JPC-3]; first compound 0.8 µM): 0.936
- relative viability (PC-3 [JPC-3]; first compound 2.53 µM): 1.02
- relative viability (PC-3 [JPC-3]; first compound 8 µM): 1.09
- relative viability (RERF-LC-KJ; first compound 0.253 µM): 0.8
- relative viability (RERF-LC-KJ; first compound 0.8 µM): 0.778
- relative viability (RERF-LC-KJ; first compound 2.53 µM): 0.827
- relative viability (RERF-LC-KJ; first compound 8 µM): 0.835
